Test results reported in ChEMBL document CHEMBL1138765, “Design, synthesis, and biological evaluation of biotin conjugates of 2-cyano-3,12-dioxooleana-1,9(11)-dien-28-oic acid for the isolation of the protein targets” (J Med Chem, 2004).

tested on: MCF7; assay: Inhibitory concentration against proliferation of MCF-7 (ER Positive) breast cancer cells; type: functional, cell-based; conditions: Homo sapiens

Row | Structure (SMILES) | IC50
1 | COC(=O)[C@]12CCC(C)(C)CC1C1C(=O)C=C3[C@@]4(C)C=C(C#N)C(=O)[C@@](C)(COC(=O)CCCCCNC(=O)CCCC[C@@H]5SC[C@@H]6NC(=O)N[C@@H]65)[C@@H]4CC[C@@]3(C)[C@]1(C)CC2 (stereo partly specified) | 0.55 µM
2 | COC(=O)[C@]12CCC(C)(C)CC1C1C(=O)C=C3[C@@]4(C)C=C(C#N)C(=O)[C@@](C)(CO)[C@@H]4CC[C@@]3(C)[C@]1(C)CC2 (stereo partly specified) | 0.08 µM
3 | CC1(C)CC[C@]2(C(=O)NCCCCCCNC(=O)CCCCC3SC[C@@H]4NC(=O)N[C@H]34)CC[C@]3(C)C(C(=O)C=C4[C@@]5(C)C=C(C#N)C(=O)C(C)(C)[C@@H]5CC[C@]43C)C2C1 (stereo partly specified) | 3.31 µM
4 | CC1(C)CC[C@]2(C(=O)NCCCC(=O)NCCCCCCNC(=O)CCCCC3SC[C@@H]4NC(=O)N[C@H]34)CC[C@]3(C)C(C(=O)C=C4[C@@]5(C)C=C(C#N)C(=O)C(C)(C)[C@@H]5CC[C@]43C)C2C1 (stereo partly specified) | 5.26 µM
5 | COC(=O)[C@]12CCC(C)(C)C[C@H]1[C@H]1C(=O)C=C3[C@@]4(C)C=C(C#N)C(=O)C(C)(C)[C@@H]4CC[C@@]3(C)[C@]1(C)CC2 [BARDOXOLONE METHYL] | 0.05 µM
6 | CC1(C)CC[C@]2(C(=O)O)CC[C@]3(C)[C@H](C(=O)C=C4[C@@]5(C)C=C(C#N)C(=O)C(C)(C)[C@@H]5CC[C@]43C)[C@@H]2C1 [BARDOXOLONE] | 0.16 µM
